Laboratory results from patent US9187424B1, “Aryl dihydropyridinones and piperidinone MGAT2 inhibitors” (Bristol-Myers Squibb Company, priority 2011, dated 2015).

What follows are compounds tested against Human MGAT-2 (Homo sapiens (Human), UniProt Q3SYC2) (assay: MGAT LCMS Assay (human MGAT-2)). Conditions: human MGAT-2 membranes expressed in Sf9 cells; 2-oleoylglycerol and oleoyl-Coenzyme A; read-out: h-MGAT2 IC50 (nM) LCMS Assay.
Format: biochemical
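Further: diolein product quantified by LC/MS with positive APCI, expressed as peak area ratio versus an internal standard, and this ratio used to derive IC50.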

Chain of Human MGAT-2 (Q3SYC2 whole entry): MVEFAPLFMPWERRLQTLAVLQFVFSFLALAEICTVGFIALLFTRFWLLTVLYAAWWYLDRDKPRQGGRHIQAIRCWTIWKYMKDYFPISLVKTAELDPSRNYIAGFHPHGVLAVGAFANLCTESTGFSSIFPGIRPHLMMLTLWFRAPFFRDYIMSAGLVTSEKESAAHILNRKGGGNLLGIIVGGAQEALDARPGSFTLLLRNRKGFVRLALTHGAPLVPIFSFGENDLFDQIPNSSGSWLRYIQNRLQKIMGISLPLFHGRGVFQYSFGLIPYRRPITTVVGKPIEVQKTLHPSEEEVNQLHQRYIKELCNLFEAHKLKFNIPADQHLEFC

IC50 | SMILES
374 nM | Cc1ccc(C2=C(c3nn[nH]n3)C(=O)NC(c3cnn(CCCCC(F)(F)F)c3)(C(F)(F)F)C2)cc1 (stereo not drawn) [Example 12, 3-(2H-Tetrazol-5-yl)-4-p-tolyl-6-(trifluoromethyl)-6-(1-(5,5,5-trifluoropentyl)-1H-pyrazol-4-yl)-5,6-dihydropyridin-2(1H)-one]
1220 nM | Cc1ccc(C2=C(C(=O)Nc3cn(C)cn3)C(=O)NC(c3ccc(OCCCC(F)(F)F)cc3)(C(F)(F)F)C2)cc1 (stereo not drawn) [Example 87]
136 nM | CCOc1ccc(C2=C(c3nn[nH]n3)C(=O)NC(c3ccc(OCCCC(F)(F)F)cc3)(C(F)(F)F)C2)cc1 (stereo not drawn) [Example 92]
1430 nM | Cc1cccc(C2=C(c3nn[nH]n3)C(=O)NC(c3ccc(OCCCC(F)(F)F)cc3)(C(F)(F)F)C2)c1 (stereo not drawn) [Example 96]
1200 nM | O=C1NC(c2ccc(OCCCC(F)(F)F)cc2)(C(F)(F)F)CC(c2ccccc2)=C1c1nn[nH]n1 (stereo not drawn) [Example 97]
795 nM | O=C1NC(c2ccc(OCCCC(F)(F)F)cc2)(C(F)(F)F)CC(c2cccc(Cl)c2)=C1c1nn[nH]n1 (stereo not drawn) [Example 99]
1580 nM | COc1cccc(C2=C(c3nn[nH]n3)C(=O)NC(c3ccc(OCCCC(F)(F)F)cc3)(C(F)(F)F)C2)c1 (stereo not drawn) [Example 100]
1090 nM | COc1ccc(NC(=O)C2=C(c3ccc(C)cc3)CC(C)(C(=O)NCCCC(F)(F)F)NC2=O)cc1 (stereo not drawn) [Example 102, N^5-(4-Methoxyphenyl)-2-methyl-6-oxo-4-p-tolyl-N^2-(4,4,4-trifluorobutyl)-1,2,3,6-tetrahydropyridine-2,5-dicarboxamide]
189 nM | CCCCCCc1cnc(C2(C)CC(c3ccc(C)cc3)=C(C#N)C(=O)N2)o1 (stereo not drawn) [Example 108, 6-(5-Hexyloxazol-2-yl)-6-methyl-2-oxo-4-p-tolyl-1,2,5,6-tetrahydropyridine-3-carbonitrile]
39 nM | CCCCCCCn1ccc(C2(C)CC(c3ccc(C)cc3)=C(C#N)C(=O)N2)n1 (stereo not drawn) [Example 109, 6-(1-Heptyl-1H-pyrazol-3-yl)-6-methyl-2-oxo-4-p-tolyl-1,2,5,6-tetrahydropyridine-3-carbonitrile]
704 nM | Cc1ccc(C2=C(n3ccnc3)C(=O)NC(c3ccc(OCCCC(F)(F)F)cc3)(C(F)(F)F)C2)cc1 (stereo not drawn) [Example 114]
40 nM | Cc1ccc(C2=C(C(O)Nc3ccccc3)C(=O)NC(c3ccc(OCCCC(F)(F)F)cc3)(C(F)(F)F)C2)cc1 (stereo not drawn) [Example 115]
282 nM | Cc1ccc(C2=C(C(=O)Nc3nn[nH]n3)C(=O)NC(c3ccc(OCCC(F)(F)F)cc3)(C(F)(F)F)C2)cc1 (stereo not drawn) [Example 125]
328 nM | Cc1ccc(C2=C(C(=O)Nc3cccc(C)c3)C(=O)NC(c3ccc(OCCC(F)(F)F)cc3)(C(F)(F)F)C2)cc1 (stereo not drawn) [Example 128]
222 nM | Cc1ccc(NC(=O)C2=C(c3ccc(C)cc3)CC(c3ccc(OCCC(F)(F)F)cc3)(C(F)(F)F)NC2=O)cc1 (stereo not drawn) [Example 129]
1050 nM | Cc1ccc(C2=C(C(=O)Nc3cc(C)[nH]n3)C(=O)NC(c3ccc(OCCC(F)(F)F)cc3)(C(F)(F)F)C2)cc1 (stereo not drawn) [Example 131]
163 nM | Cc1ccc(C2=C(C(=O)Nn3cnc([N+](=O)[O-])n3)C(=O)NC(c3ccc(OCCC(F)(F)F)cc3)(C(F)(F)F)C2)cc1 (stereo not drawn) [Example 132]
168 nM | Cc1ccc(C2=C(C(=O)Nc3ccc(-c4nn[nH]n4)cc3)C(=O)NC(c3ccc(OCCC(F)(F)F)cc3)(C(F)(F)F)C2(F)F)cc1 (stereo not drawn) [Example 134]
778 nM | Cc1ccc(NC(=O)C2=C(c3ccc(C)cc3)C(F)(F)C(c3ccc(OCCC(F)(F)F)cc3)(C(F)(F)F)NC2=O)cc1 (stereo not drawn) [Example 135]
328 nM | Cc1ccc(C2=C(C(=O)Nc3nnc(C(F)(F)F)o3)C(=O)NC(c3ccc(OCCC(F)(F)F)cc3)(C(F)(F)F)C2)cc1 (stereo not drawn) [Example 136]
252 nM | Cc1ccc(C2=C(C(=O)Nc3ccccc3OC(F)(F)F)C(=O)NC(c3ccc(OCCC(F)(F)F)cc3)(C(F)(F)F)C2)cc1 (stereo not drawn) [Example 137]
5800 nM | COc1ccc(C2(C(F)(F)F)NC(=O)C(C#N)=C(c3ccc(C)cc3)C2(F)F)cc1 (stereo not drawn) [Example 138]
356 nM | COc1ccc(C2=C(c3ccc(C)cc3)C(F)(F)C(c3ccc(OCCCC(F)(F)F)cc3)(C(F)(F)F)NC2=O)cn1 (stereo not drawn) [Example 140]
459 nM | Cc1ccc(C2=C(C(=O)NC3CCCC3)C(=O)NC(c3ccc(OCCCC(F)(F)F)cc3)(C(F)(F)F)C2(F)F)cc1 (stereo not drawn) [Example 141]

SMILES | IC50
COc1ccc(C2=C[C@](c3ccc(OCCCC(F)(F)F)cc3)(C(F)(F)F)NC(=O)C2(F)C#N)cc1 (single isomer, unassigned) [Example 15-2, 3-Fluoro-4-(4-methoxyphenyl)-2-oxo-6-(4-(4,4,4-trifluorobutoxyl)phenyl)-6-(trifluoromethyl)-1,2,3,6-tetrahydropyridine-3-carbonitrile] | 431 nM
COc1ccc(C2=C[C@@](c3ccc(OCCCC(F)(F)F)cc3)(C(F)(F)F)NC(=O)C2(F)C#N)cc1 (stereo in doubt) [Example 15-3, 3-Fluoro-4-(4-methoxyphenyl)-2-oxo-6-(4-(4,4,4-trifluorobutoxyl)phenyl)-6-(trifluoromethyl)-1,2,3,6-tetrahydropyridine-3-carbonitrile] | 756 nM
COc1ccc(C2=C[C@@](c3ccc(OCCCC(F)(F)F)cc3)(C(F)(F)F)NC(=O)C2(F)C#N)cc1 (stereo in doubt) [Example 15-4, 3-Fluoro-4-(4-methoxyphenyl)-2-oxo-6-(4-(4,4,4-trifluorobutoxyl)phenyl)-6-(trifluoromethyl)-1,2,3,6-tetrahydropyridine-3-carbonitrile] | 2050 nM
CCn1nnc(C2=C(c3ccc(C)cc3)CC(c3ccc(OCCCC(F)(F)F)cc3)(C(F)(F)F)NC2=O)n1 (stereo not drawn) [Example 9, 3-(2-Ethyl-2H-tetrazol-5-yl)-4-p-tolyl-6-(4-(4,4,4-trifluorobutoxyl)phenyl)-6-(trifluoromethyl)-5,6-dihydropyridin-2(1H)-one] | 121 nM
COc1ccc(C2=C(C#N)C(=O)NC(c3ccc(OCCCC(F)(F)F)cc3)(C(F)(F)F)C23CC3)cc1 (stereo not drawn) [Example 14, 8-(4-Methoxyphenyl)-6-oxo-4-(4-(4,4,4-trifluorobutoxyl)phenyl)-4-(trifluoro-methyl)-5-azaspiro[2.5]oct-7-ene-7-carbonitrile] | 2050 nM
Cc1ccc(C2=C(C(=O)Nc3ccc(C#N)cc3)C(=O)NC(c3ccc(OCCCC(F)(F)F)cc3)(C(F)(F)F)C2(F)F)cc1 (stereo not drawn) [Example 103, N-(4-Cyanophenyl)-5,5-difluoro-2-oxo-4-p-tolyl-6-(4-(4,4,4-trifluorobutoxyl)phenyl)-6-(trifluoromethyl)-1,2,5,6-tetrahydropyridine-3-carboxamide] | 645 nM
Cc1ccc(C2=C(N)C(=O)N[C@@](c3ccc(OCCCC(F)(F)F)cc3)(C(F)(F)F)C2)cc1 [Example 104, (S)-3-Amino-4-p-tolyl-6-(4-(4,4,4-trifluorobutoxy)phenyl)-6-(trifluoromethyl)-5,6-dihydropyridin-2(1H)-one] | 103 nM
Cc1ccc(C2=C(Oc3ccccc3)C(=O)N[C@@](c3ccc(OCCCC(F)(F)F)cc3)(C(F)(F)F)C2)cc1 [Example 106, (S)-3-Phenoxy-4-p-tolyl-6-(4-(4,4,4-trifluorobutoxy)phenyl)-6-(trifluoromethyl)-5,6-dihydropyridin-2(1H)-one] | 552 nM
CCCCOc1ccc(C2(C)CC(c3ccc(C)cc3)=C(C#N)C(=O)N2)cc1 (stereo not drawn) [Example 107, 6-(4-Butoxyphenyl)-6-methyl-2-oxo-4-p-tolyl-1,2,5,6-tetrahydropyridine-3-carbonitrile] | 93 nM
